Test results published in ChEMBL document CHEMBL4665827, “Discovery of Small-Molecule Inhibitors of Receptor Activator of Nuclear Factor-κB Ligand with a Superior Therapeutic Index” (J Med Chem, 2020).
Activity calls are given as the source filed them. No cut-off for these calls is given here.

What was measured:
[1] = Therapeutic index, ratio of LC50 for mouse bone marrow cells to IC50 for Inhibition of human RANKL-induced osteoclastogenesis in RANKL cultured mouse bone marrow cells; format: toxicity; conditions: read-out: Ratio LC50/IC50
[2] = Cytotoxicity against mouse BMMC assessed as reduction in cell viability measured after 48 hrs by MTT assay; format: cell-based; conditions: mouse BMMC (bone marrow cells), read-out: LC50
[3] = Effect on osteoblast differentiation in mouse MC3T3-E1 cells assessed as change in ALP activity at 2 to 10 uM with media replenishment every 3 days for 14 days; format: ADME, cell-based; conditions: mc3t3-e1, 336 h, dose 2-10 µM, time 14 day
[4] = molecular target: T1, Tumor necrosis factor ligand superfamily member 11 (Homo sapiens) (UniProt O14788); test: Inhibition of human soluble RANKL trimerization assessed as increase in RANKL monomer level preincubated for 1 hr followed by DSS addition and measured after 1 hr by SDS-PAGE analysis; conditions: time 2.0 hrs
T1 sequence (whole entry): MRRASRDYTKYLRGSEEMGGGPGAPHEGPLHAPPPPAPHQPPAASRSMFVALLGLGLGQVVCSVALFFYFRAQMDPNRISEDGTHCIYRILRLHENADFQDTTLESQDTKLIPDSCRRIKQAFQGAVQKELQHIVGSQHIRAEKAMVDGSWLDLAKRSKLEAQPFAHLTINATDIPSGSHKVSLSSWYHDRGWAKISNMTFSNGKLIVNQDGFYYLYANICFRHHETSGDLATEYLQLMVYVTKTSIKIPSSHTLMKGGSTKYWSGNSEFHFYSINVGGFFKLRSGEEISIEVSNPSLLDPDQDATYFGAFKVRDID

[5] = molecular target: T1, Tumor necrosis factor ligand superfamily member 11 (Homo sapiens); test: (§1) Inhibition of human RANKL-induced osteoclastogenesis in RANKL cultured mouse bone marrow cells assessed as reduction in phalloidin-labeled actin ring formation at 5 to 10 uM preincubated with RANKL for 1 hr followed by cell addition and subsequent media replenishment every 48 hrs for 4 days by Alexa Fluor 488-conjugated phalloidin/DAPI-staining based fluorescence microscopic analysis; conditions: dose microM 5-10, time 4.0 day
[6] = molecular target: T1, Tumor necrosis factor ligand superfamily member 11 (Homo sapiens); test: Inhibition of human RANKL-induced osteoclastogenesis in RANKL cultured mouse bone marrow cells assessed as reduction in RANKL/M-CSF-induced TRAP activity at 5 to 10 uM preincubated with RANKL for 1 hr followed by cell addition and subsequent media replenishment every 48 hrs for 4 days; format: cell-based; conditions: dose microM 5-10, time 4.0 day
[7] = molecular target: T1, Tumor necrosis factor ligand superfamily member 11 (Homo sapiens); test: Inhibition of human RANKL-induced osteoclastogenesis in RANKL cultured mouse bone marrow cells assessed as reduction in RANKL/M-CSF-induced TRAP activity at 5 uM preincubated with RANKL for 1 hr followed by cell addition and subsequent media replenishment every 48 hrs for 4 days; format: cell-based; conditions: time 4.0 day
[8] = molecular target: T1, Tumor necrosis factor ligand superfamily member 11 (Homo sapiens); test: Potency index, ratio of SPD-304 Kd to test compound Kd for binding affinity to GST-fused human RANKL extracellular domain (Lys159 to Asp317 residues) expressed in Escherichia coli BL21(DE3) pLysS by fluorescence spectrophotometric assay
[9] = molecular target: T1, Tumor necrosis factor ligand superfamily member 11 (Homo sapiens); test: Inhibition of human RANKL-induced osteoclastogenesis in RANKL cultured mouse bone marrow cells assessed as reduction in RANKL/M-CSF-induced TRAP activity preincubated with RANKL for 1 hr followed by cell addition and subsequent media replenishment every 48 hrs for 4 days; format: cell-based; conditions: time 4.0 day
[10] = molecular target: T2, Tumor necrosis factor ligand superfamily member 11 (Homo sapiens, UniProt O14788); test: Binding affinity to GST-fused human RANKL extracellular domain (Lys159 to Asp317 residues) expressed in Escherichia coli BL21(DE3) pLysS by fluorescence spectrophotometric assay
T2 sequence (O14788 whole entry): T1 sequence (whole entry)

[11] = test system: BMMC; test: Cytotoxicity against mouse BMMC assessed as reduction in cell viability at 5 uM measured after 48 hrs by MTT assay; format: cell-based
[12] = molecular target: T1, Tumor necrosis factor ligand superfamily member 11 (Homo sapiens); test: (§2) Inhibition of RANKL (unknown origin) in RANKL cultured mouse RAW264.7 cells assessed as reduction in RANKL/RANK-interaction mediated NFATc1 expression at 2 to 10 uM preincubated for 1 hr followed by cell culture addition and measured after 2 days by Western blot analysis; format: cell-based; conditions: dose microM 2-10, time 49.0 hrs
[13] = molecular target: T1, Tumor necrosis factor ligand superfamily member 11 (Homo sapiens); test: (§3) Inhibition of RANKL (unknown origin) in RANKL cultured mouse RAW264.7 cells assessed as reduction in RANKL/RANK-interaction mediated cFOS expression at 2 to 10 uM preincubated for 1 hr followed by cell culture addition and measured after 2 days by Western blot analysis; format: cell-based; conditions: dose microM 2-10, time 49.0 hrs
[14] = molecular target: T1, Tumor necrosis factor ligand superfamily member 11 (Homo sapiens); test: Inhibition of human soluble RANKL trimerization assessed as increase in RANKL monomer level at 1:3 to 1:10 ratio of DSS to RANKL preincubated for 1 hr followed by DSS addition and measured after 1 hr by SDS-PAGE analysis; conditions: time 2.0 hrs
[15] = molecular target: T1, Tumor necrosis factor ligand superfamily member 11 (Homo sapiens); test: as §3, with “expression by measuring cFOS protein expression” for “expression”, “at” for “at 2 to”, “analysis relative to positive control (reference value: 1)” for “analysis”; format: cell-based; conditions: time 49.0 hrs
[16] = molecular target: T1, Tumor necrosis factor ligand superfamily member 11 (Homo sapiens); test: as §3, with “expression by measuring cFOS protein expression” for “expression”, “5” for “2 to 10”, “analysis relative to positive control (reference value: 1)” for “analysis”; format: cell-based; conditions: time 49.0 hrs
[17] = molecular target: T1, Tumor necrosis factor ligand superfamily member 11 (Homo sapiens); test: as §3, with “expression by measuring cFOS protein expression” for “expression”, “2” for “2 to 10”, “analysis relative to positive control (reference value: 1)” for “analysis”; format: cell-based; conditions: time 49.0 hrs
[18] = molecular target: T1, Tumor necrosis factor ligand superfamily member 11 (Homo sapiens); test: as §2, with “expression by measuring NFATc1 protein expression” for “expression”, “at” for “at 2 to”, “analysis relative to positive control (reference value: 1)” for “analysis”; format: cell-based; conditions: time 49.0 hrs
[19] = molecular target: T1, Tumor necrosis factor ligand superfamily member 11 (Homo sapiens); test: as §2, with “expression by measuring NFATc1 protein expression” for “expression”, “5” for “2 to 10”, “analysis relative to positive control (reference value: 1)” for “analysis”; format: cell-based; conditions: time 49.0 hrs
[20] = molecular target: T1, Tumor necrosis factor ligand superfamily member 11 (Homo sapiens); test: as §2, with “expression by measuring NFATc1 protein expression” for “expression”, “2” for “2 to 10”, “analysis relative to positive control (reference value: 1)” for “analysis”; format: cell-based; conditions: time 49.0 hrs
[21] = molecular target: T1, Tumor necrosis factor ligand superfamily member 11 (Homo sapiens); test: Inhibition of human soluble RANKL trimerization assessed as increase in RANKL monomer level at 1:3 ratio of DSS to RANKL preincubated for 1 hr followed by DSS addition and measured after 1 hr by SDS-PAGE analysis; conditions: time 2.0 hrs
[22] = molecular target: T1, Tumor necrosis factor ligand superfamily member 11 (Homo sapiens); test: as §1, with “formation” for “formation at 5 to 10 uM”

| Structure (SMILES) | selectivity ratio [1] | CC50 at 48 h [2] | inhibition [7] | Kd ([10]; read-out: Kd) | further results |
| --- | --- | --- | --- | --- | --- |
| O=C(c1cn(S(=O)(=O)c2cccc([N+](=O)[O-])c2)c2ccccc12)N1CCN(S(=O)(=O)c2cccc([N+](=O)[O-])c2)CC1 | 18.5 | 118 µM |  |  |  |
| CN(CCN(C)Cc1cn(S(=O)(=O)c2ccccc2)c2ccccc12)Cc1coc2ccccc2c1=O | 23.4 | 58.5 µM | 100% | 5.24 µM | Activity [3]: Non-Toxic; inhibition [4]: Dose-dependent effect; inhibition [5]: Active; inhibition [6]: Active; Ratio [8]: 2.7; inhibition [9]: Dose-dependent effect |
| Cc1ccc2occ(CN(C)CCN(C)Cc3cn(S(=O)(=O)c4ccccc4)c4ccccc34)c(=O)c2c1 |  |  |  | 6.62 µM | Activity [11]: Toxic |
| CN(CCN(C)C(=O)c1cn(S(=O)(=O)c2ccccc2)c2ccccc12)C(=O)c1coc2ccccc2c1=O | 21.8 | 62.3 µM | 100% | 4.6 µM | inhibition [12]: Active; inhibition [13]: Active; Activity [3]: Non-Toxic; Ratio [8]: 3; inhibition [9]: Dose-dependent effect |
| CN(CCN(C)S(=O)(=O)c1ccccc1)C(=O)c1cn(S(=O)(=O)c2cccc([N+](=O)[O-])c2)c2ccccc12 | > 112 | > 300 µM |  |  |  |
| Cc1cc2occ(CN(C)CCN(C)Cc3cn(-c4cccc(C(F)(F)F)c4)c4ccccc34)c(=O)c2cc1C | 3.2 | 3.2 µM |  |  | Activity [11]: Toxic; inhibition [14]: Active; inhibition [9]: Dose-dependent effect |
| O=C(c1cn(S(=O)(=O)c2cccc([N+](=O)[O-])c2)c2ccccc12)N1CCN(S(=O)(=O)c2ccccc2)CC1 | 84.8 | 123 µM |  |  | fold change (FC) [15]: 0.56; fold change (FC) [16]: 0.63; fold change (FC) [17]: 0.91; fold change (FC) [18]: 0.34; fold change (FC) [19]: 0.57; fold change (FC) [20]: 0.82 |
| CN(CCN(C)S(=O)(=O)c1cccc([N+](=O)[O-])c1)C(=O)c1cn(S(=O)(=O)c2cccc([N+](=O)[O-])c2)c2ccccc12 | 9.5 | 18.3 µM |  |  |  |
| CN(CCN(C)C(=O)c1cn(-c2cccc(C(F)(F)F)c2)c2ccc([N+](=O)[O-])cc12)C(=O)c1coc2ccccc2c1=O |  | < 20 µM | 100% | 2.82 µM |  |
| Cc1cc2occ(C(=O)N3CCN(C(=O)c4cn(-c5cccc(C(F)(F)F)c5)c5ccccc45)CC3)c(=O)c2cc1C |  | < 20 µM | 100% | 4.6 µM |  |
| Cc1cc2occ(CN3CCN(Cc4cn(-c5cccc(C(F)(F)F)c5)c5ccccc45)CC3)c(=O)c2cc1C |  | < 20 µM | 100% | > 10 µM |  |
| CN(CCN(C)C(=O)c1cn(-c2cccc([N+](=O)[O-])c2)c2ccccc12)C(=O)c1coc2ccccc2c1=O | 27.8 | 44.2 µM | 100% | 2.18 µM | fold change (FC) [15]: 0.48; fold change (FC) [16]: 0.56; fold change (FC) [17]: 0.58; fold change (FC) [18]: 0.39; fold change (FC) [19]: 0.52; fold change (FC) [20]: 0.66; inhibition [21]: Active; inhibition [22]: Dose-dependent effect; Activity [3]: Non-Toxic; inhibition [9]: Dose-dependent effect |
| O=C(c1ccccc1F)N1CCN(C(=O)c2c[nH]c3ccc([N+](=O)[O-])cc23)CC1 |  | > 20 µM | Active | 12.8 µM |  |
| CN(CCN(C)C(=O)c1cn(S(=O)(=O)c2cccc([N+](=O)[O-])c2)c2ccccc12)C(=O)c1coc2ccccc2c1=O | 6.3 | 32.2 µM | 100% | 4.6 µM | inhibition [9]: Dose-dependent effect |
| N#Cc1ccc(S(=O)(=O)N2CCN(C(=O)c3cn(S(=O)(=O)c4cccc([N+](=O)[O-])c4)c4ccccc34)CC2)cc1 | 10.4 | 52.6 µM |  |  |  |
| O=C(c1coc2ccccc2c1=O)N1CCN(C(=O)c2cn(S(=O)(=O)c3ccccc3)c3ccccc23)CC1 |  | > 20 µM | Active | 11 µM |  |
| Nc1cccc(-n2cc(C(=O)N3CCN(C(=O)c4coc5ccccc5c4=O)CC3)c3cc(N)ccc32)c1 |  | > 20 µM | Active | 9.31 µM |  |
| O=C(c1coc2ccccc2c1=O)N1CCN(C(=O)c2cn(S(=O)(=O)c3cccc([N+](=O)[O-])c3)c3ccccc23)CC1 |  | < 20 µM | 100% |  | Kd [10]: Not Active |
| CN(CCN(C)S(=O)(=O)c1ccc(C#N)cc1)C(=O)c1cn(S(=O)(=O)c2cccc([N+](=O)[O-])c2)c2ccccc12 | > 250 | > 500 µM |  |  |  |
| O=C(c1ccc2ccccc2c1)N1CCN(Cc2cn(-c3cccc(C(F)(F)F)c3)c3ccc([N+](=O)[O-])cc23)CC1 |  | > 20 µM | Active |  | Kd [10]: Not Active |
| Cc1cc2occ(CN(C)CCN(C)Cc3cn(S(=O)(=O)c4ccccc4)c4ccccc34)c(=O)c2cc1C |  |  |  | 8.71 µM | Activity [11]: Toxic |
